Measured values: US20120283096A1, “AGENT FOR IMPROVING PLANT GROWTH, SEEDS, AND METHOD FOR IMPROVING PLANT GROWTH” (Incorporated Administrative Agency National Agricu lture …, priority 2010, published 2012)
Read-outs that look alike come from different tables or passages of the source.

Assays:
[1] = in water, powder, cited from earlier work
paddy seeds = test: Possibility of growth of paddy seeds in tank farming without soil (Example 3)
Procedure: (§1) The decay-inhibiting effect of molybdenum-containing substances in tank farming without soil was examined.
(§2) The possibility of growth and the inhibition of decay were determined in the same manner as above.

decay of paddy seeds = test: Decay-inhibiting effect in tank farming without soil (Example 3); settings: for Inhibition of decay, Amount of molybdenum or tungsten added to seed: seeds covered with substance, soaked two weeks in water at 30° C.; for Soaking: Inhibition of decay, Concentration of Molybdenum in Solution: paddy seeds left soaked two weeks in the solution at 30° C., no soil, water did not rot, no rotten smell; for Ten-minute soaking: Inhibition of decay, Concentration of Molybdenum in Solution: seeds soaked ten minutes in the solution, then two weeks in water at 30° C.
Procedure: as §1, §2

[2] = seeds covered with substance, soaked two weeks in water at 30° C.

For [Mg+2].[O]=[Mo](=[O])([O-])[O-] [Magnesium molybdate], the Water solubility [1] is listed as “Slightly soluble (has a percentage of solubility of 10% by weight or lower with respect to water)” and the Water solubility ([1]; listed as magnesium molybdate) is listed as “slightly soluble”.

In the case of [O]=[W](=[O])([OH])[OH] [Tungstic acid], the Possibility of growth, Amount of molybdenum or tungsten added to seed (paddy seeds; in vivo) is listed as over 1 mmol/g, the “Inhibition of decay, Amount of molybdenum or tungsten added to seed” value (“Inhibition of decay, Amount … to seed” for short) (decay of paddy seeds) is listed as 1< mmol g^−1 and the Water solubility [1] is listed as “Slightly soluble (has a percentage of solubility of 10% by weight or lower with respect to water)”.

With [Ca+2].[O]=[Mo](=[O])([O-])[O-] [Calcium molybdate] the “Possibility of growth, Amount of molybdenum or tungsten added to seed” value (paddy seeds; [2]) was 1 mmol/g and the “Inhibition of decay, Amount … to seed” value (decay of paddy seeds) was 0.3 mmol/g.

In the case of Ammonium molybdate tetrahydrate, the “Soaking: Inhibition of decay, Concentration of Molybdenum in Solution” value (decay of paddy seeds) is reported as under 0.02 M and the “Ten-minute soaking: Inhibition of decay, Concentration of Molybdenum in Solution” value (decay of paddy seeds) is reported as 0.1 M.

In the case of “Potassium phosphomolybdate [Potassium molybdophosphate]”, the Water solubility [1] is given as “Slightly soluble (has a percentage of solubility of 10% by weight or lower with respect to water)” and the Water solubility ([1]; listed as potassium molybdophosphate) is given as “slightly soluble”.

With O.O.[Na+].[Na+].[O]=[Mo](=[O])([O-])[O-] [Sodium molybdate, Sodium molybdate dihydrate] the “Soaking: Possibility of growth, Concentration of Molybdenum in Solution” value (paddy seeds; paddy seeds left soaked two weeks in the solution at 30° C., no soil, concentration at which sheath leaf elongation was observed) was 0.03 M, the “Ten-minute soaking: Possibility of growth, Concentration of Molybdenum in Solution” value (paddy seeds; seeds soaked ten minutes in the solution, then two weeks in water at 30° C.) was 1< M and the “Soaking: Inhibition of decay, Concentration of Molybdenum in Solution” value (decay of paddy seeds) was 0.1 M. For the same molecule, the “Ten-minute soaking: Inhibition of decay, Concentration of Molybdenum in Solution” value (decay of paddy seeds) was 0.3 M, the Water solubility ([1]; dihydrate) was “Readily soluble” and the Water solubility ([1]; listed as sodium molybdate, dihydrate) was “readily soluble”.

For “Ammonium phosphotungstate trihydrate [Ammonium tungstophosphate]”, the Possibility of growth, Amount of molybdenum or tungsten added to seed (paddy seeds; in vivo) was over 1 mmol/g and the “Inhibition of decay, Amount … to seed” value (decay of paddy seeds) was 1< mmol g^−1.

For [H+].[H+].[NH4+].[NH4+].[NH4+].[NH4+].[NH4+].[NH4+].[NH4+].[NH4+].[NH4+].[NH4+].[O]=[W](=[O])([O-])[O-].[O]=[W](=[O])([O-])[O-].[O]=[W](=[O])([O-])[O-].[O]=[W](=[O])([O-])[O-].[O]=[W](=[O])([O-])[O-].[O]=[W](=[O])([O-])[O-].[O]=[W](=[O])=[O].[O]=[W](=[O])=[O].[O]=[W](=[O])=[O].[O]=[W](=[O])=[O].[O]=[W](=[O])=[O].[O]=[W](=[O])=[O] [Ammonium paratungstate, Ammonium tungstate parapentahydrate], the “Possibility of growth, Amount of molybdenum or tungsten added to seed” value (paddy seeds; [2]) is given as 0.3 mmol/g, the “Inhibition of decay, Amount … to seed” value (decay of paddy seeds) is given as under 0.3 mmol/g and the Water solubility [1] is given as “Slightly soluble (has a percentage of solubility of 10% by weight or lower with respect to water)”.
